{"source": "patent US6414029B1", "about": "“Vanadium complexes of monohydroxamates and pharmaceutical compositions comprising them” (priority 1997, dated 2002)", "key": {"rat adipocytes": {"test_system": "rat adipocytes", "experiment": "Lipogenesis bioassay ([U-14C]glucose incorporation into lipids) in rat adipocytes", "assay_type": "cell-based", "settings": "for Percent of maximal effect of insulin, Amino acid-HXM only (10 μM): free amino acid monohydroxamate 10 μM, lipogenesis; for Net Potentiating Effect (%): potentiation of lipogenic capacity of VOCl2 10 μM by equimolar HXM; for Potentiation of the insulinomimetic (lipogenic) efficacy of VOCl2, in words / Synergizing effect relative to that exerted by Glu(γ)HXM: vanadium (+4); for Potentiation of the insulinomimetic (lipogenic) efficacy of VOCl2, in words: equimolar HXM; for Synergizing effect relative to that exerted by Glu(γ)HXM: 1:1 molar ratio", "procedure": "The fat pads of male Wistar rats were cut into small pieces with scissors and suspended in 3 ml of KRB buffer. […] Five ml of buffer was then added, and the cells were passed through a mesh screen. The cells were then allowed to stand for several minutes in a 15-ml plastic test tube at room temperature, floating, and the buffer underneath was removed. This procedure (suspension, floating, and removal of buffer underneath) was repeated three times.\nIn the lipogenic assay, for measurement of glucose uptake and its incorporation into lipids (lipogenesis), the adipocyte suspensions (3×10^5 cells/ml) were divided into plastic vials (0.5 ml per vial) and incubated for 60 min at 37° C. under an atmosphere of carbogen with 0.2 mM [U-^14C]glucose (4-7 mCi/mol), in either the absence or presence of insulin (100 ng/ml), and the complexes to be tested."}, "murine leukemia L5178Y [1]": {"test_system": "murine leukemia L5178Y", "settings": "in vitro; cited from earlier work"}, "murine leukemia L5178Y [2]": {"test_system": "murine leukemia L5178Y", "settings": "in vivo; cited from earlier work"}, "Friend leukemia cells": {"test_system": "Friend leukemia cells", "settings": "in vitro; cited from earlier work"}, "STZ-rats": {"test_system": "STZ-rats", "experiment": "Blood glucose level in streptozocin(STZ)-treated rats", "assay_type": "in vivo, rat", "procedure": "(b) Streptozocin(STZ)-treated rats: Diabetes was induced by a single intravenous injection of a freshly prepared solution of streptozocin (55 mg/kg of body weight) in 0.1 M citrate buffer (pH 4.5).\nEach group received daily i.p. injections of 0.05 mmol/kg (at 11.00 a.m.), of the corresponding compound."}, "[3]": {"test_system": "isoproterenol mediated lipolysis", "experiment": "Inhibition of isoproterenol mediated lipolysis in vitro", "assay_type": "cell-based"}, "leukemia L1210": {"test_system": "leukemia L1210", "settings": "in vivo; cited from earlier work"}, "[4]": {"test_system": "vanadium-enriched adipocytes", "experiment": "Lipogenesis in vanadium-enriched versus normal adipocytes", "assay_type": "cell-based, rat", "settings": "rats given NaVO3 12 mg/kg/day s.c. for five days (FIG. 8)", "procedure": "Lipogenesis was performed as described above using free Glu(γ)HXM to compare freshly prepared rat adipocytes (3×10^5 cells/ml) from non-enriched vanadium rats to the enriched-vanadium rats."}, "adipocytes": {"test_system": "adipocytes", "experiment": "Hexose influx (2-deoxy-D-[6-3H]glucose) into adipocytes", "assay_type": "cell-based, rat", "settings": "for Hexose influx, in words: two different concentrations (FIG. 4)", "procedure": "In order to test the specific effect of free Glu(γ)HXM and the Glu(γ)HXM:NaVO3 (2:1) complex on the entrance of glucose into cells, an in vitro assay was performed using 2-deoxy-D-[6-^3H]glucose (2-DG). 2-DG is a non-metabolized analog of glucose and this assay thus represents the influence of a compound on glucose influx to cells, independent of glucose metabolism.\nAliquots (70 μl) of the aforementioned samples were transferred into tubes that contained 2-deoxy-D-[6-^3H]glucose (0.1 mM final concentration). After 3 minutes, phloretin ([…]) was added in order to terminate the penetration of 2-DG into the cells. Samples of the suspended cells were then transferred to tubes with silicone oil where, upon centrifugation, the cells separate from the KRB medium and leftover 2-DG."}, "leukemia L1210 cells": {"test_system": "leukemia L1210 cells", "settings": "in vitro; cited from earlier work"}, "melanoma B16 cells": {"test_system": "melanoma B16 cells", "settings": "in vivo; cited from earlier work"}, "InsRTK": {"target": "InsRTK (Rattus norvegicus, UniProt P15127)", "sequence (P15127 27-1383)": "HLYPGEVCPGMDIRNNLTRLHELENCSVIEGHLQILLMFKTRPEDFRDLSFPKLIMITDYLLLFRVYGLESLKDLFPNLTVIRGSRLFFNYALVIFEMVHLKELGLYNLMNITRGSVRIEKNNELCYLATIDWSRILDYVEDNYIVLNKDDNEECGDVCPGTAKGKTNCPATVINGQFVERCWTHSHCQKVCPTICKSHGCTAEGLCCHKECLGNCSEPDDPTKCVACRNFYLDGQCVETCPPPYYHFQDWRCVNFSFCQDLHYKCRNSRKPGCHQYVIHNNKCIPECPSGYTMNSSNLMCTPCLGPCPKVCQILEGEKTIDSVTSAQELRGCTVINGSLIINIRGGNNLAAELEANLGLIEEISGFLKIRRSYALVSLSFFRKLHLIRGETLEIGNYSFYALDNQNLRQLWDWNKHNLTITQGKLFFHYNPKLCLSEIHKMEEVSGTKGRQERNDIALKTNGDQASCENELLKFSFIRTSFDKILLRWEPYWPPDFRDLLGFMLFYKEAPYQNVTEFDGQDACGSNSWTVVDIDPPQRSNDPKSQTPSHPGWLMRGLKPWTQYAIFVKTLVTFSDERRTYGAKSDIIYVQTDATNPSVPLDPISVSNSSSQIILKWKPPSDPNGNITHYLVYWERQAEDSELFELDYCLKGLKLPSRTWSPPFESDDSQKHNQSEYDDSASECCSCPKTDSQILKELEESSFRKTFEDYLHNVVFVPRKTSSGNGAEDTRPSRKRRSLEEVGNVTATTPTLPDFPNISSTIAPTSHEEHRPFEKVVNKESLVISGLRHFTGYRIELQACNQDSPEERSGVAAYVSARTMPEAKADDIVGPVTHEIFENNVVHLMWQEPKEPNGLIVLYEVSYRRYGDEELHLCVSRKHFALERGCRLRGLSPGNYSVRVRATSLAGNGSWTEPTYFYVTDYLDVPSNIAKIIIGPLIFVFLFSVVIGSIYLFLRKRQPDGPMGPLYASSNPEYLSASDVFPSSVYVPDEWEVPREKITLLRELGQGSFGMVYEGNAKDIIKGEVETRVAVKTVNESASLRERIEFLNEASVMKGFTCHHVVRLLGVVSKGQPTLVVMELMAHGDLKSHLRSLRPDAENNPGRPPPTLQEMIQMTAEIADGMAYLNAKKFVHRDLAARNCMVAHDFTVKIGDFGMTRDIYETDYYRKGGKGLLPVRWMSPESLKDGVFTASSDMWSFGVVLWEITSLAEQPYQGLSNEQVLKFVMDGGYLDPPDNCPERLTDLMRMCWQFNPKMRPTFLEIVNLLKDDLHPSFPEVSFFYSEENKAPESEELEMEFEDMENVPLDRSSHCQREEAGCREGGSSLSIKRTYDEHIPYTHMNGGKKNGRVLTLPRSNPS", "settings": "cited from earlier work"}, "[5]": {"settings": "insulin 100 ng/ml, typical experiment"}}, "note": "pKi: −log10 of the molar value. “Also recorded” adds a separate entry of the source. Like-named read-outs stand apart in the source and are kept apart here."}
{"compound": "CC(C)(N)C(=O)NO", "note": "[Aib-HXM, aminoisobutyric acid monohydroxamate]", "values": [{"measurement": "Percent of maximal effect of insulin, Amino acid-HXM only (10 μM)", "setting": "rat adipocytes", "result": "0% (−3%)"}, {"measurement": "Net Potentiating Effect (%)", "setting": "rat adipocytes", "result": 0, "unit": "%"}]}
{"compound": "N=C(N)NCCC[C@H](N)C(=O)NO", "note": "[Arg-HXM, L-arginine hydroxamate]", "values": [{"measurement": "Percent of maximal effect of insulin, Amino acid-HXM only (10 μM)", "setting": "rat adipocytes", "result": 4, "unit": "%"}, {"measurement": "Net Potentiating Effect (%)", "setting": "rat adipocytes", "result": "˜2%"}]}
{"compound": "N[C@H](CC(=O)NO)C(=O)O", "note": "[D-Asp(β)HXM, D-Aspartic acid β-hydroxamate]", "values": [{"measurement": "Antitumoral activity, in words", "setting": "murine leukemia L5178Y [1]", "result": "antitumoral activity"}, {"measurement": "Antitumoral activity, in words", "setting": "murine leukemia L5178Y [2]", "result": "antitumoral activity"}, {"measurement": "Activity against Friend leukemia cells, in words", "setting": "Friend leukemia cells", "result": "active"}]}
{"compound": "N[C@H](CCC(=O)NO)C(=O)O", "note": "[D-Glu(γ)HXM, D-glutamic acid γ-monohydroxamate]", "values": [{"measurement": "Synergistic action with vanadium, stereospecificity, in words", "setting": "rat adipocytes", "result": "not facilitated"}, {"measurement": "Percent of maximal effect of insulin, Amino acid-HXM only (10 μM)", "setting": "rat adipocytes", "result": 1, "unit": "%"}, {"measurement": "Net Potentiating Effect (%)", "setting": "rat adipocytes", "result": 0, "unit": "%"}, {"measurement": "Potentiation of the insulinomimetic (lipogenic) efficacy of VOCl2, in words", "setting": "rat adipocytes", "result": "did not potentiate"}]}
{"compound": "N[C@@H](CCC(=O)NO)C(=O)O", "note": "[Glu(γ)HXM, L-glutamic acid γ-monohydroxamate]", "values": [{"measurement": "Elevation of the efficacy of vanadate to lower blood glucose levels", "setting": "STZ-rats; STZ-treated diabetic rats", "result": "5-7 fold"}, {"measurement": "Isoproterenol mediated lipolysis, in words", "setting": "[3]", "result": "inhibition of isoproterenol mediated lipolysis"}, {"measurement": "Lipogenesis in the absence of exogeneously added vanadium, in words", "setting": "rat adipocytes; 10-100 μM (FIG. 6)", "result": "activates lipogenesis; also recorded: produce insulin effects"}, {"measurement": "Percent of maximal effect of insulin, Amino acid-HXM only (10 μM)", "setting": "rat adipocytes", "result": 22, "unit": "%"}, {"measurement": "Activation together with a saturated concentration of insulin, in words", "setting": "rat adipocytes; in vitro", "result": "additive to maximal effect"}, {"measurement": "Net Potentiating Effect (%)", "setting": "rat adipocytes", "result": 51, "unit": "%"}, {"measurement": "Potentiation of vanadium (+5) in activating glucose metabolism in rat adipocytes", "setting": "rat adipocytes; vanadium (+5)", "result": "7-10 fold"}, {"measurement": "Cytotoxicity, in words", "setting": "leukemia L1210", "result": "cytotoxic"}, {"measurement": "Potentiation of intracellular vanadium in enriched-vanadium rat cells versus normal adipocytes, in words", "setting": "[4]", "result": "to a much greater extent"}, {"measurement": "Glucose entry into cells, magnitude as % of maximal insulin response", "setting": "adipocytes; 20 and 40 μM, 30 min preincubation (FIG. 4)", "result": "about 60%"}, {"measurement": "Hexose influx, in words", "setting": "adipocytes", "result": "stimulate hexose influx"}, {"measurement": "Cytotoxicity, in words", "setting": "leukemia L1210 cells", "result": "cytotoxic"}, {"measurement": "Cytotoxicity, in words", "setting": "melanoma B16 cells", "result": "cytotoxic"}]}
{"compound": "N[C@@H](CC(=O)NO)C(=O)O", "note": "[L-Asp(β)HXM, L-aspartic acid β-monohydroxamate]", "values": [{"measurement": "Synergizing effect relative to that exerted by Glu(γ)HXM", "setting": "rat adipocytes", "result": "~85", "unit": "%"}, {"measurement": "Percent of maximal effect of insulin, Amino acid-HXM only (10 μM)", "setting": "rat adipocytes", "result": 8, "unit": "%"}, {"measurement": "Net Potentiating Effect (%)", "setting": "rat adipocytes", "result": 54, "unit": "%"}]}
{"compound": "NCCCC[C@H](N)C(=O)NO", "note": "[Lys-HXM, L-lysine hydroxamate]", "values": [{"measurement": "Percent of maximal effect of insulin, Amino acid-HXM only (10 μM)", "setting": "rat adipocytes", "result": "0% (−4%)"}, {"measurement": "Net Potentiating Effect (%)", "setting": "rat adipocytes", "result": 0, "unit": "%"}]}
{"compound": "CC(=O)N[C@@H](CCC(=O)NO)C(=O)O", "note": "[N-acetyl Glu(γ)HXM, N-acetyl-L-glutamic acid γ-monohydroxamate]", "values": [{"measurement": "Percent of maximal effect of insulin, Amino acid-HXM only (10 μM)", "setting": "rat adipocytes", "result": 0, "unit": "%"}, {"measurement": "Net Potentiating Effect (%)", "setting": "rat adipocytes", "result": 0, "unit": "%"}, {"measurement": "Potentiation of the insulinomimetic (lipogenic) efficacy of VOCl2, in words", "setting": "rat adipocytes", "result": "did not potentiate"}]}
{"compound": "O=C(NO)c1cccnc1", "note": "[Nic-HXM, nicotinic acid hydroxamate]", "values": [{"measurement": "Synergizing effect relative to that exerted by Glu(γ)HXM", "setting": "rat adipocytes", "result": "~57", "unit": "%"}, {"measurement": "Percent of maximal effect of insulin, Amino acid-HXM only (10 μM)", "setting": "rat adipocytes", "result": 11, "unit": "%"}, {"measurement": "Net Potentiating Effect (%)", "setting": "rat adipocytes", "result": 29, "unit": "%"}]}
{"compound": "CN[C@@H]1C[C@H]2O[C@@](C)([C@@H]1OC)n1c3ccccc3c3c4c(c5c6ccccc6n2c5c31)C(=O)NC4", "note": "[Staurosporine]", "values": [{"measurement": "pKi", "setting": "InsRTK", "result": "~6.00"}]}
{"compound": "N[C@@H](Cc1c[nH]c2ccccc12)C(=O)NO", "note": "[Trp-HXM, L-tryptophan hydroxamate]", "values": [{"measurement": "Percent of maximal effect of insulin, Amino acid-HXM only (10 μM)", "setting": "rat adipocytes", "result": 2, "unit": "%"}, {"measurement": "Net Potentiating Effect (%)", "setting": "rat adipocytes", "result": "˜9%"}]}
{"compound": "Cl.Cl.[O]=[V]", "note": "[VOCl2, vanadyl chloride]", "values": [{"measurement": "Effect on blood glucose levels of STZ-rats, in words", "setting": "STZ-rats; i.p. 0.02 mmol/kg/day, 12 days (FIG. 2)", "result": "no significant effect"}]}
{"compound": "L-histidine hydroxamate [His-HXM]", "values": [{"measurement": "Percent of maximal effect of insulin, Amino acid-HXM only (10 μM)", "setting": "rat adipocytes", "result": 4, "unit": "%"}, {"measurement": "Net Potentiating Effect (%)", "setting": "rat adipocytes", "result": "˜3%"}]}
{"compound": "insulin: Porcine insulin purchased from Eli Lilly Co.", "values": [{"measurement": "Insulin-stimulated lipogenesis relative to basal", "setting": "rat adipocytes; [5]", "result": "4-5 fold"}, {"measurement": "Vinsulin", "setting": "rat adipocytes; [5]", "result": "8,000-10,000 cpm per 3×10^5 cell/h"}]}
{"compound": "sodium metavanadate [NaVO3]", "values": [{"measurement": "Hexose influx, in words", "setting": "adipocytes", "result": "stimulate hexose influx"}]}
